The conditions of data set [1]: cited from earlier work.
Data set [2] in a line: Solubility with Polyphenolic Polymer in water. The following applies: molecule formulated with Polyphenolic Polymer.
Data set [3] can be described thus: Comparative study of solubility profile in water (spectrophotometric absorption at 262). The format is physicochemical. Particulars: 200 ml DI water, filtered 0.45 micron.
Method: A comparative study was conducted to observe the solubility profile in water. Materials: Ibuprofen was purchased from Spectrum (USP grade) USA. […] Spectrophotometer used in the study is from Beckman Coulter DU800. Sample preparation; 200 mg of Ibuprofen was weighed and ground in a […] -mortar and dissolved in 200 ml of DI water.
For data set [4] the following is noted: estimated; cited from earlier work.

SMILES strings stand for the structures. Counter-ions that a name gives are not always drawn.

Here are results for 19 molecules from patent US11622937B2, “Polyphenolic polymer to make water-insoluble molecules become water-soluble” (priority 2015, dated 2023).

As for `CN1C[C@H](C(=O)N[C@]2(C)O[C@@]3(O)[C@@H]4CCCN4C(=O)[C@H](Cc4ccccc4)N3C2=O)C[C@@H]2c3cccc4[nH]cc(c34)C[C@H]21` [Dihydroergotamine Mesylate], the “Reported Solubility in water” value in data set [1] is “Insoluble”. In data set [2], the “Solubility with Polyphenolic Polymer in water (more than 99%)” value (from here on “Solubility … (more than 99%)”) was “Water Soluble”.

For `CCc1nc(N)nc(N)c1-c1ccc(Cl)cc1` [Pyrimethamine], the “Reported Solubility in water” value in data set [1] is reported as “Insoluble”. Further, in data set [2], the “Solubility … (more than 99%)” value is on record as “Water Soluble”.

As to `CC(C)Cc1ccc(C(C)C(=O)O)cc1` (centres unmarked) [Ibuprofen], the solubility result in data set [3] is on record as “less than 1%”. For the same molecule, in data set [1], the “Reported Solubility in water” value is “Insoluble”.

As to `C[C@@H]1C[C@H]2[C@@H]3CCC4=CC(=O)C=C[C@]4(C)[C@@]3(F)[C@@H](O)C[C@]2(C)[C@@]1(O)C(=O)CO` [Dexamethasone], the “Reported Solubility in water” value in data set [1] is given as “Insoluble”. Further, the “Solubility … (more than 99%)” value in data set [2] is “Water Soluble”.

For `CC(=O)Oc1ccccc1C(=O)O` [Aspirin], the “Reported Solubility in water” value in data set [1] was “Insoluble”. In addition, in data set [2], the “Solubility … (more than 99%)” value is reported as “Water Soluble”.

`COc1cccc2c1C(=O)c1c(O)c3c(c(O)c1C2=O)C[C@@](O)(C(=O)CO)C[C@@H]3O[C@H]1C[C@H](N)[C@H](O)[C@H](C)O1` [Doxorubicin]: in data set [1], the “Reported Solubility in water” value is “Insoluble”. In addition, in data set [2], the “Solubility … (more than 99%)” value is “Water Soluble”.

On to `CN1CCCC(n2nc(Cc3ccc(Cl)cc3)c3ccccc3c2=O)CC1` (centres unmarked) [Azelastine], for which the “Reported Solubility in water” value in data set [1] is on record as “Insoluble”. In addition, in data set [2], the “Solubility … (more than 99%)” value is recorded as “Water Soluble”.

As for `Nc1cccc2c1C(=O)N(C1CCC(=O)NC1=O)C2=O` (centres unmarked) [Pomalidomide], the “Reported Solubility in water” value in data set [1] was “Insoluble”. Also, the “Solubility … (more than 99%)” value in data set [2] was “Water Soluble”.

With `Nc1cccc2c1CN(C1CCC(=O)NC1=O)C2=O` (centres unmarked) [Lenalidomide], the “Reported Solubility in water” value in data set [1] is given as “Insoluble”. Moreover, the “Solubility … (more than 99%)” value in data set [2] is recorded as “Water Soluble”.

For `CO[C@H]1/C=C/O[C@@]2(C)Oc3c(C)c(O)c4c(O)c(c(/C=N/N5CCN(C)CC5)c(O)c4c3C2=O)NC(=O)/C(C)=C\C=C\[C@H](C)[C@H](O)[C@@H](C)[C@@H](O)[C@@H](C)[C@H](OC(C)=O)[C@@H]1C` [Rifampin], the “Reported Solubility in water” value in data set [1] was “Insoluble”. For the same molecule, the “Solubility … (more than 99%)” value in data set [2] was “Water Soluble”.

For `CN(Cc1cnc2nc(N)nc(N)c2n1)c1ccc(C(=O)N[C@@H](CCC(=O)O)C(=O)O)cc1` [Methotrexate], in data set [1], the “Reported Solubility in water” value is “Insoluble”. Also, the “Solubility … (more than 99%)” value in data set [2] is given as “Water Soluble”.

In the case of `NC(=O)N1c2ccccc2C=Cc2ccccc21` [Carbamazepine], the “Reported Solubility in water” value in data set [1] was “Insoluble”. Besides, in data set [2], the “Solubility … (more than 99%)” value is recorded as “Water Soluble”.

On to `C=C(c1ccc(C(=O)O)cc1)c1cc2c(cc1C)C(C)(C)CCC2(C)C` [Bexarotene, Free Acid (4), Bexarotene], for which the solubility in water in data set [4] is 10 to 50 µM. Also, the “Reported Solubility in water” value in data set [1] was “Insoluble”.

Take `Cc1nc2n(c(=O)c1CCN1CCC(c3noc4cc(F)ccc34)CC1)CCCC2O` (centres unmarked) [Paliperidone]: the “Reported Solubility in water” value in data set [1] is on record as “Insoluble”. Moreover, in data set [2], the “Solubility … (more than 99%)” value is “Water Soluble”.

`CC12CCC(CC1=O)C2(C)C` (centres unmarked) [Camphor]: the “Reported Solubility in water” value in data set [1] is on record as “Insoluble”. Also, the “Solubility … (more than 99%)” value in data set [2] is recorded as “Water Soluble”.

As for `CCC(=O)O[C@]1(C(=O)SCF)[C@H](C)C[C@H]2[C@@H]3C[C@H](F)C4=CC(=O)C=C[C@]4(C)[C@@]3(F)[C@@H](O)C[C@@]21C` [Fluticasone Propionate], the “Reported Solubility in water” value in data set [1] was “Insoluble”. For the same molecule, the “Solubility … (more than 99%)” value in data set [2] is reported as “Water Soluble”.

As for `COC1=C(OC)C(=O)C(C/C=C(\C)CC/C=C(\C)CC/C=C(\C)CC/C=C(\C)CC/C=C(\C)CC/C=C(\C)CC/C=C(\C)CC/C=C(\C)CC/C=C(\C)CCC=C(C)C)=C(C)C1=O` [CoQ10], the “Reported Solubility in water” value in data set [1] is “Insoluble”. In data set [2], the “Solubility … (more than 99%)” value is “Water Soluble”.

On to `CC[C@@]1(O)C(=O)OCc2c1cc1n(c2=O)Cc2cc3ccccc3nc2-1` [Camptothecin], for which the “Reported Solubility in water” value in data set [1] was “Insoluble”. Besides, the “Solubility … (more than 99%)” value in data set [2] is listed as “Water Soluble”.

For `CN1C(C(=O)Nc2ccccn2)=C(O)c2ccccc2S1(=O)=O` [Piroxicam (pain), Piroxicam], the “Reported Solubility in water” value in data set [1] is reported as “Insoluble”. Also, the “Solubility … (more than 99%)” value in data set [2] is recorded as “Water Soluble”.
